Assay results taken from patent US5691311A (Biogen, Inc., priority 1995, dated 1997).
Where two headings read alike, the source gives them in different places.

Legend:
[1] = test system: pooled, normal human plasma; assay: Activated partial thromboplastin time (APTT) assay in plasma; type: biochemical; conditions: 10 to 32,300 ng/ml
Excerpt: Hirulog-8 using pooled, normal human plasma (George King Biomedical, Overland Park, Kans.) and a Coag-A-Mate XC instrument (General Diagnostics, Organon Technica, Oklahoma City, Okla.). Activity was monitored using the activated partial thromboplastin time (APTT) assay with CaCl2 and phospholipid solutions obtained from the manufacturer.

[2] = target: thrombin (Homo sapiens, UniProt P00734); conditions: cited from earlier work
[3] = test system: thrombin-induced platelet activation; assay: Thrombin-induced platelet activation in platelet-rich plasma; type: cell-based, human; conditions: 0-500 ng/ml, thrombin 0.2, 0.25 or 0.5 units/ml
Description: Thrombin-induced platelet activation studies are performed at 37° C. using a Biodata PAP4 Platelet Aggregometer. Platelet-rich plasma (PRP) is obtained from normal, healthy, volunteers who have not taken any medication altering platelet function for at least one week prior to study. PRP is prepared as described by J. A. Jakubowski et al., "Modification of Human Platelet by a Diet Enriched in Saturated or Polyunsaturated Fat", Atherosclerosis, 31, pp. 335-44 (1978). […] One minute later, we add human α-thrombin to the platelet suspension to a final concentration of 0.2, 0.25 or 0.5 units/ml total assay volume. Aggregation is monitored as an increase in light transmission for 5 minutes following the addition of thrombin. We then calculate % Inhibition as (% aggregationsample)/(% aggregationcontrol)×100.

[4] = test system: sarcoma T241 cells; assay: Anti-metastatic activity, lung tumor colonies; type: in vivo, C57BL/6 mice; conditions: i.v. or s.c., 15 days
Excerpt: After 15 days, the animal is sacrificed and lung tumor colonies are quantitated.

[5] = test system: human umbilical vein endothelial cells (HUVECs); assay: Thrombin-induced synthesis of platelet activating factor (PAF); type: cell-based; conditions: 0-1 μg/ml, thrombin 1 U/ml
Description: The ability of the thrombin inhibitors of this invention to prevent thrombin-induced synthesis of platelet activating factor (PAF) is assayed using cultured human umbilical vein endothelial cells (HUVECs). HUVECS are extracted from human umbilical cords by collagenase digestion according to established procedures [M. A. Gimborne, Jr., "Culture of Vascular Endothelium", Prog. Hemost. Thromb., 3, pp. 1-28 (1976)]. HUVECs are grown to confluence in a 96-well microtiter plate in the presence of [^3 H]-acetate. Cells cultured in this manner produce [^3 H]-acetyl-PAF, which may be quantitated by extraction of HUVEC membrane phospholipids.
Cells are incubated for 5 minutes and the supernatant is then removed. Medium containing 0.1% gelatin, 50 mM acetic acid in methanol (2:1 v/v) is then added to the HUVECs. PAF is then extracted and quantified using conventional techniques [T. M. Mcintyre et al., "Cultured Endothelial Cells Synthesize Both Platelet-Activating Factor and Prostacyclin in Response to Histamine, Bradykinin and Adenosine Triphosphate", J. Clin. Invest., 76, pp. 271-80 (1985)]. The IC50 values are then calculated.

[6] = test system: HUVECs; assay: Thrombin-induced polymorphonuclear leukocyte (PMN) adhesion to HUVECs; type: cell-based, human; conditions: 5 μg/ml, α-thrombin 0.1 or 1 U/ml
Description: HUVECs are grown to confluence in MEM containing 1% fetal calf serum in 24-well cluster plates. The medium is then removed, the cells are washed two times with fresh, serum-free medium and incubated in the same medium for 10-30 minutes at 37° C. to remove serum products. PMNs (2.5×10^6 in 1 ml), which are pre-equilibrated at 37° C., are then added to each well. The PMNs are allowed to settle onto the HUVEC monolayer for 2 minutes. […] The cells are incubated for 5 minutes at 37° C., washed twice and then examined by phase-contrast microscopy. Adherent PMNs are counted directly.

[7] = test system: APTT; assay: In vivo anticoagulant activity, APTT after intravenous infusion; design: species or system baboon
Description: Whole blood from treated and control animals was removed from a catheter placed in the femoral vein and collected into 3.8% sodium citrate (9:1; blood:sodium citrate). Plasma was obtained by standard methods and the APTT was recorded by methods described in Example 10.

[8] = test system: platelet-dependent thrombosis; assay: Platelet deposition on thrombogenic surfaces in exteriorized AV shunt; type: in vivo, baboon
Description: Specifically, we placed various thrombogenic surfaces in a chronic exteriorized AV shunt in the animals. These surfaces included segments of endarterectomized baboon aorta, collagen-coated silastic tubing, collagen-coated Gortex and Dacron vascular graft. Following placement in the shunt, the surfaces were exposed to native flowing blood to elicit thrombus formation. We measured the formation of thrombi over a period of 60 minutes by monitoring the deposition of platelets on the thrombogenic surface. These measurements were recorded by external gamma-camera imaging following pre-infusion of the test animal with autologous ^111 In-labeled platelets.

[9] = test system: platelet-dependent thrombus formation; assay: High and low shear platelet-dependent thrombus formation, dual-chamber device; type: in vivo, baboon; conditions: 0.05 mg/kg/min, 40 minutes
Excerpt: The device was comprised of a 2 cm segment of collagen-coated Gortex followed by 2 cm segments of expanded diameter. Using this device, thrombus formation was initiated by exposure of native flowing blood to a segment of the collagen-coated Gortex at high shear. This part of the experimental protocol simulated arterial-like conditions. When the blood entered the expanded diameter segments, low-shear, vortex conditions were maintained, thereby simulating venous thrombosis. In control animals, a total of 9.3±2.3×10^8 and 6.1±0.5×10^8 platelets/cm accumulated after 40 minutes in the high and low shear segments, respectively.

[10] = test system: fibrin(ogen) deposition; assay: Fibrin(ogen) deposition in AV shunt thrombi; type: in vivo, baboon; conditions: collagen-coated tubing, 60 minute exposure
Description: Fibrin deposition was determined by measurement of ^125 I-fibrin(ogen) 30 days after completion of the ^111 In-platelet assay described above. This allowed the ^111 In label to decay to a non-interfering level.

[11] = Clearance times monitored by APTT; type: in vivo, baboon
Description: APTT assays, performed as described in Example 11, were used to monitor clearance times.
APTT was measured following the 60 minute infusion and at various time intervals thereafter.
APTT measurements were taken at various time intervals following injection.

[12] = test system: E. coli-induced septic shock; assay: E. coli-induced septicemia / disseminated intravascular coagulation; type: in vivo, baboon; conditions: 0.08 mg/kg/hr infusion
Excerpt: We induced septicemia in baboons by injection of a lethal dose of live E. coli according to the method described by F. B. Taylor et al. J. Clin. Invest., 79, pp. 918-25 (1987).

[13] = test system: hemostasis; assay: Template bleeding time; type: in vivo, baboon
[14] = test system: APTT; assay: Systemic anticoagulant effect (APTT) of antithrombotic agents; type: in vivo, baboon; conditions: dose not given
Excerpt: We also tested the effects of a variety of other agents on template bleeding time in the baboon, as well as on systemic anticoagulant effects (as measured by APTT).

[15] = target: T1, soluble thrombin (Homo sapiens, UniProt P00734); assay: Fibrinopeptide A (FPA) release by soluble thrombin; type: biochemical; conditions: 0.1 U/ml
T1 construct: We added a 270-fold excess of ^14 C-DFP to thrombin

[16] = target: clot-bound thrombin (Homo sapiens, UniProt P00734); assay: Fibrinopeptide A (FPA) release by clot-bound thrombin; type: biochemical; conditions: similar dose (0.1 U/ml)
[17] = test system: platelet-dependent thrombosis; conditions: collagen-coated silastic tubing, 160 U/kg bolus then 160 U/kg/hr infusion; cited from earlier work

## hirudin
[1]
  maximal increase of APTT of plasma: too high to be measured
[2]; 1:1 stoichiometric complex, read-out: Kd of hirudin binding to thrombin
  Kd: 0.02 nM
[2]; site separate from the catalytic site (anion-binding exosite), read-out: Kd of hirudin for the low affinity site on thrombin
  Kd: 10 nM

## CC[C@H](C)[C@H](NC(=O)[C@H](CCC(=O)O)NC(=O)[C@H](CCC(=O)O)NC(=O)[C@H](Cc1ccccc1)NC(=O)[C@H](CC(=O)O)NC(=O)CNC(=O)[C@H](CC(N)=O)NC(=O)CNC(=O)CNC(=O)CNC(=O)CNC(=O)[C@@H]1CCCN1C(=O)[C@H](CCCNC(=N)N)NC(=O)[C@@H]1CCCN1C(=O)[C@H](N)Cc1ccccc1)C(=O)N1CCC[C@H]1C(=O)N[C@@H](CCC(=O)O)C(=O)N[C@@H](CCC(=O)O)C(=O)N[C@@H](Cc1ccc(O)cc1)C(=O)N[C@@H](CC(C)C)C(=O)O [Hirulog-8]
[1]
  maximal increase of APTT of plasma: too high to be measured
[3]
  thrombin-induced platelet activation: blocks thrombin-induced platelet activation
[4]
  anti-metastatic activity (reduction in lung tumor colonies): demonstrates anti-metastatic activity
[5]
  synthesis of PAF by HUVECs: inhibits the synthesis of PAF
[6]
  adherent PMNs versus saline: significantly fewer adherent PMNs
[7]; 0.002 mg/kg/min infusion
  increase in the APTT: 200 % increase
[7]; 0.002 to 0.2 mg/kg/min i.v.
  APTT response to dose: dose-dependent increase in the APTT
[8]; collagen-coated Gortex
  ED50: 0.135 mg/kg/min
[8]; collagen-coated Gortex, 0.2 mg/kg/min
  inhibition of platelet deposition: 62.9%
[8]; collagen-coated silastic tubing
  ED50: 0.004 mg/kg/min
[8]; collagen-coated silastic tubing, 5 nmole/kg/min
  inhibition of platelet-dependent thrombus formation compared to control: 60-70%
[8]; collagen-coated silastic tubing, 0.04 mg/kg/min
  inhibition of platelet deposition: completely inhibited platelet deposition
[8]; collagen-coated surfaces, applicants' determinations
  ED50: < 5 nmol/kg/min
[8]; endarterectomized baboon aorta
  ED50 (dosage required to reduce platelet deposition by 50%): 0.002 mg/kg/min
[8]; endarterectomized baboon aorta, 0.002 mg/kg/min, 60 minutes
  inhibition of platelet deposition: 53.6%
[8]; endarterectomized baboon aorta, 0.01 mg/kg/min, 60 minutes
  inhibition of platelet deposition: 75.5%
[9]; high shear
  inhibition of platelet accumulation: 29.0%
[9]; low shear
  inhibition of platelet accumulation: 42.6%
[10]; 0.01 mg/kg/min
  fibrin(ogen) deposition: completely inhibited fibrin(ogen) deposition
[10]; 0.04 mg/kg/min
  fibrin(ogen) deposition: completely inhibited fibrin(ogen) deposition
[11]; 1 mg/kg i.v. bolus
  half-life: 14 min
[11]; 1 mg/kg i.v. bolus, 2 minutes after injection
  peak APTT: 570 % of control
[11]; 1 mg/kg subcutaneous
  absorption after subcutaneous administration: quantitatively adsorbed
  clearance half-time: 340 min
[11]; 1 mg/kg subcutaneous, 15 minutes
  APTT: approximately 200 % of control
[11]; after 60 minute i.v. infusion, 0.002-0.2 mg/kg/min
  average half-time for clearance: 9.2 ± 3.3 min
[12]
  hematocrit drop: completely attenuated hematocrit drop
  intravascular thrombosis at autopsy: only the control group displayed intravascular thrombosis
  morbidity after lethal infusion of E. coli: still resulted in morbidity
  peak drop in blood pressure: 60 % of baseline
[13]; 0.1 mg/kg/min
  increase in bleeding time over control values: two-fold
[13]; 0.2 mg/kg/min
  bleeding times: 3 times control values
[13]; 0.002 to 0.04 mg/kg/min
  bleeding times: no significant increase in bleeding times
[13]; dose not given
  Bleeding Time: 5.5 min
[14]
  APTT (% control): 300.6 % control

## Heparin
[15]
  inhibition of FPA release catalyzed by soluble thrombin: approximately 70%
[16]
  effect on FPA release catalyzed by clot-bound thrombin: no effect
[13]; in vivo
  Bleeding Time: 10 min
[14]
  APTT (% control): 706.1 % control
[17]
  platelet deposition level relative to saline-treated control: about 80%
